In paper PMC11372264, “^61Cu-PSMA–Targeted PET for Prostate Cancer: From Radiotracer Development to First-in-Human Imaging” (Journal of Nuclear Medicine, 2024):

Tests used:
PSMA = target: T1, PSMA (Homo sapiens, UniProt Q04609); assay: Competition binding on LNCaP cells using [^125I-BA]KuE as reference radioligand; conditions: [^125I-BA]KuE 0.2 nM, 1 h on ice, determined with natCu/natGa complexes
T1 construct: endogenous in cells; host or cells: LNCaP cells
Method: (§1) The lipophilicity of [^61Cu]Cu-DOTAGA-PSMA-I&T and [^61Cu]Cu-NODAGA-PSMA-I&T was assessed by determining the distribution coefficient in a 1:1 mixture of 1-octanol–to–phosphate-buffered saline at pH 7.4, in comparison with all reference radiotracers. Inhibitory concentration of 50% (IC50) was assessed by competition binding on lymph node carcinoma of the prostate (LNCaP) using ((S)-1-carboxy-5-(4-(-^125I-iodo-benzamido)pentyl)carbamoyl)-L-glutamic acid as the reference radioligand. Cellular uptake and distribution were assessed in LNCaP cells at 5, 15, 30, 60, and 120 min after exposure to the radioligand at 37°C, either alone or in the presence of 10 µM 2-(phosphonomethyl)pentanedioic acid to distinguish between specific and nonspecific uptake.
(§2) FIGURE 1. In vitro assessment in LNCaP cells after 1 h at 37°C. (A) Competition binding activity curves of ^natCu-DOTAGA-PSMA-I&T, ^natCu-NODAGA-PSMA-I&T, and ^natGa-PSMA-11 on LNCaP cells after 1 h of incubation on ice, using ((S)-1-carboxy-5-(4-(-^125I-iodo-benzamido)pentyl)carbamoyl)-L-glutamic acid ([^125I-BA]KuE) at concentration of 0.2 nM as reference radioligand. (B) Cellular uptake (surface-bound + internalized). Cell surface–bound and internalized fractions are indicated. Results represent mean ± SD of specific (total − nonspecific) uptake from minimum of 2 separate experiments, each in triplicate.

LNCaP cells = assay: Cellular uptake and distribution (surface-bound, internalized) in LNCaP cells; type: cell-based; conditions: 1 h, 37°C, specific uptake
Method: as §1, §2

[1] = Lipophilicity: distribution coefficient in 1:1 1-octanol/phosphate-buffered saline at pH 7.4; type: physicochemical
Method: as §1

LNCaP xenografts = assay: Biodistribution in LNCaP xenografts; type: in vivo, mice
Method: All animal experiments were conducted in accordance with Swiss animal welfare laws and regulations under license number 30515 granted by the Veterinary Office, Department of Health, Canton Basel-Stadt, Switzerland. Male athymic nude-Foxn1^nu/Foxn1^+ mice (Envigo), 4–6 wk old, were inoculated subcutaneously on the shoulder with 10^7 LNCaP cells, freshly suspended in a 1:1 ratio of sterile minimum essential medium with basal medium Eagle and Matrigel. The tumors were allowed to grow to a volume of approximately 200 mm^3.
The biodistribution of [^61Cu]Cu-DOTAGA-PSMA-I&T and [^61Cu]Cu-NODAGA-PSMA-I&T (100 µL/200 pmol/2–3 MBq) was compared with that of [^68Ga]Ga-DOTAGA-PSMA-I&T, [^68Ga]Ga-NODAGA-PSMA-I&T, and [^68Ga]Ga-PSMA-11 (100 µL/200 pmol/3–5 MBq), as well as [^18F]PSMA-1007 (100 µL/70 pmol/15 MBq). This comparison was conducted at 1 h after injection for all radiotracers and at 4 h after injection for the ^61Cu-labeled tracers and [^18F]PSMA-1007. The specificity of the ^61Cu-labeled tracers was assessed at 1 h after injection by blocking studies with 2-(phosphonomethyl)pentanedioic acid (100 µL/1.3 µmol) being injected 3–5 min before the injection of the radiotracer.

T1 sequence (Q04609 whole entry): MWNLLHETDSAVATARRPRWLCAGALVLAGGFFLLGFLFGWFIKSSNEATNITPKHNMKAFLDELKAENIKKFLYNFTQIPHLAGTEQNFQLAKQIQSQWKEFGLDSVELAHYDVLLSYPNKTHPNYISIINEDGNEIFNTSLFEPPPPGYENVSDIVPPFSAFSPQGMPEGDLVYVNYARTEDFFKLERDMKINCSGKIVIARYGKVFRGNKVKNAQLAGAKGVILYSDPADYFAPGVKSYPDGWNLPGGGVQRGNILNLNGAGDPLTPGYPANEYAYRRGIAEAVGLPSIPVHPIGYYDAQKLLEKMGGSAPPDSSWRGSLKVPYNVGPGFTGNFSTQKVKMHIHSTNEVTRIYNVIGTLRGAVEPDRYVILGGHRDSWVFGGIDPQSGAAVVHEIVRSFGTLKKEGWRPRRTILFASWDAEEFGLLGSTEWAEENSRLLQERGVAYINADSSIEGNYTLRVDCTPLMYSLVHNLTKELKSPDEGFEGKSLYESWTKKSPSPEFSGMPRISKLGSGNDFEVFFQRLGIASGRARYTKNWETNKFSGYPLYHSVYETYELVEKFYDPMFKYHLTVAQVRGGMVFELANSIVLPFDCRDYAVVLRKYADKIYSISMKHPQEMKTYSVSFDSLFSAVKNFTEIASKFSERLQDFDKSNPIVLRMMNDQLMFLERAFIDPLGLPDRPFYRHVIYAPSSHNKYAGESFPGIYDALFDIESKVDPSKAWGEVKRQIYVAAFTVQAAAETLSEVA

Compound: O=C([O-])CN(CCN(CC(=O)[O-])Cc1cc(CCC(=O)NCCCCCC(=O)NCCCC[C@H](NC(=O)N[C@@H](CCC(=O)O)C(=O)O)C(=O)O)ccc1O)Cc1cc(CCC(=O)O)ccc1[O-].[Ga+3] [^natGa-PSMA-11, reference compound]
- IC50 (PSMA): 2.4 ± 0.4 nM

Compound: O=C([O-])CN1CCN(CC(=O)[O-])CCN(C(CCC(=O)N[C@H](Cc2ccc(O)c(I)c2)C(=O)N[C@H](Cc2ccccc2)C(=O)N[C@H](CCCCNC(=O)CCCCCCC(=O)NCCCC[C@H](NC(=O)N[C@@H](CCC(=O)O)C(=O)O)C(=O)O)C(=O)O)C(=O)O)CC1.[Cu+2] (some centres unmarked) [^natCu-NODAGA-PSMA-I&T]
- IC50 (PSMA): 9.3 ± 1.8 nM

Compound: O=C([O-])CN1CCN(CC(=O)O)CCN(CC(=O)[O-])CCN(C(CCC(=O)N[C@H](Cc2ccc(O)c(I)c2)C(=O)N[C@H](Cc2ccccc2)C(=O)N[C@H](CCCCNC(=O)CCCCCCC(=O)NCCCC[C@H](NC(=O)N[C@@H](CCC(=O)O)C(=O)O)C(=O)O)C(=O)O)C(=O)O)CC1.[Cu+2] (some centres unmarked) [^natCu-DOTAGA-PSMA-I&T]
- IC50 (PSMA): 11.2 ± 2.3 nM

Compound: O=C([O-])CN1CCN(CC(=O)[O-])CCN(C(CCC(=O)N[C@H](Cc2ccc(O)c(I)c2)C(=O)N[C@H](Cc2ccccc2)C(=O)N[C@H](CCCCNC(=O)CCCCCCC(=O)NCCCC[C@H](NC(=O)N[C@@H](CCC(=O)O)C(=O)O)C(=O)O)C(=O)O)C(=O)O)CCN(CC(=O)[O-])CC1.[68Ga+3] (some centres unmarked) [[^68Ga]Ga-DOTAGA-PSMA-I&T, reference compound]
- Cellular uptake (surface-bound + internalized) (LNCaP cells): 20.6% ± 2.3%

Compound: O=C([O-])CN(CCN(CC(=O)[O-])Cc1cc(CCC(=O)NCCCCCC(=O)NCCCC[C@H](NC(=O)N[C@@H](CCC(=O)O)C(=O)O)C(=O)O)ccc1[O-])Cc1cc(CCC(=O)O)ccc1[O-].[68Ga+3].[OH3+] [[^68Ga]Ga-PSMA-11, reference compound]
- Cellular uptake (surface-bound + internalized) (LNCaP cells): 25.8% ± 0.5%
- logDpH7.4 [1]: −3.89 ± 0.19
- Biodistribution, Adrenals (LNCaP xenografts; 1 h after injection): 19.2 ± 5.3 %IA/g
- Biodistribution, Blood (LNCaP xenografts; 1 h after injection): 0.25 ± 0.07 %IA/g
- Biodistribution, Femur (LNCaP xenografts; 1 h after injection): 3.69 ± 1.86 %IA/g
- Biodistribution, Heart (LNCaP xenografts; 1 h after injection): 0.32 ± 0.10 %IA/g
- Biodistribution, Intestine (LNCaP xenografts; 1 h after injection): 1.52 ± 0.60 %IA/g
- Biodistribution, Kidneys (LNCaP xenografts; 1 h after injection): 159 ± 31 %IA/g
- Biodistribution, Liver (LNCaP xenografts; 1 h after injection): 0.54 ± 0.27 %IA/g
- Biodistribution, Lung (LNCaP xenografts; 1 h after injection): 1.43 ± 0.43 %IA/g
- Biodistribution, Muscles (LNCaP xenografts; 1 h after injection): 0.90 ± 0.36 %IA/g
- Biodistribution, Pancreas (LNCaP xenografts; 1 h after injection): 0.70 ± 0.12 %IA/g
- Biodistribution, Salivary glands (LNCaP xenografts; 1 h after injection): 1.56 ± 0.31 %IA/g
- Biodistribution, Spleen (LNCaP xenografts; 1 h after injection): 6.38 ± 1.37 %IA/g
- Biodistribution, Stomach (LNCaP xenografts; 1 h after injection): 0.69 ± 0.11 %IA/g
- Biodistribution, Tumor (tumor uptake) (LNCaP xenografts; 1 h after injection): 10.2 ± 1.5 %IA/g
- Tumor-to-Adrenals ratio (LNCaP xenografts; 1 h after injection): 0.58 ± 0.26
- Tumor-to-Blood ratio (LNCaP xenografts; 1 h after injection): 45.3 ± 19.7
- Tumor-to-Intestine ratio (LNCaP xenografts; 1 h after injection): 8.66 ± 6.90
- Tumor-to-Kidneys ratio (LNCaP xenografts; 1 h after injection): 0.07 ± 0.02
- Tumor-to-Liver ratio (LNCaP xenografts; 1 h after injection): 23.5 ± 12.5
- Tumor-to-Muscles ratio (LNCaP xenografts; 1 h after injection): 13.6 ± 8.3
- Tumor-to-Salivary glands ratio (LNCaP xenografts; 1 h after injection): 6.72 ± 1.51
- Tumor-to-Spleen ratio (LNCaP xenografts; 1 h after injection): 1.69 ± 0.58

Compound: O=C(O)CC[C@H](NC(=O)N[C@@H](CCCCNC(=O)[C@H](Cc1ccc2ccccc2c1)NC(=O)c1ccc(CNC(=O)[C@H](CCC(=O)O)NC(=O)[C@H](CCC(=O)O)NC(=O)c2ccc([18F])nc2)cc1)C(=O)O)C(=O)O [[^18F]PSMA-1007, reference compound]
- logDpH7.4 [1]: −3.02 ± 0.11
- Biodistribution, Adrenals (LNCaP xenografts; 1 h after injection): 7.18 ± 2.20 %IA/g
- Biodistribution, Blood (LNCaP xenografts; 1 h after injection): 0.41 ± 0.11 %IA/g
- Biodistribution, Femur (LNCaP xenografts; 1 h after injection): 0.94 ± 0.13 %IA/g
- Biodistribution, Heart (LNCaP xenografts; 1 h after injection): 1.25 ± 0.29 %IA/g
- Biodistribution, Intestine (LNCaP xenografts; 1 h after injection): 1.04 ± 0.33 %IA/g
- Biodistribution, Kidneys (LNCaP xenografts; 1 h after injection): 100 ± 17 %IA/g
- Biodistribution, Liver (LNCaP xenografts; 1 h after injection): 0.93 ± 0.26 %IA/g
- Biodistribution, Lung (LNCaP xenografts; 1 h after injection): 2.08 ± 0.24 %IA/g
- Biodistribution, Muscles (LNCaP xenografts; 1 h after injection): 0.53 ± 0.09 %IA/g
- Biodistribution, Pancreas (LNCaP xenografts; 1 h after injection): 1.32 ± 0.58 %IA/g
- Biodistribution, Salivary glands (LNCaP xenografts; 1 h after injection): 2.54 ± 0.72 %IA/g
- Biodistribution, Spleen (LNCaP xenografts; 1 h after injection): 11.0 ± 1.1 %IA/g
- Biodistribution, Stomach (LNCaP xenografts; 1 h after injection): 0.75 ± 0.15 %IA/g
- Biodistribution, Tumor (tumor uptake) (LNCaP xenografts; 1 h after injection): 9.70 ± 2.57 %IA/g
- Tumor-to-Adrenals ratio (LNCaP xenografts; 1 h after injection): 1.45 ± 0.55
- Tumor-to-Blood ratio (LNCaP xenografts; 1 h after injection): 25.8 ± 11.5
- Tumor-to-Intestine ratio (LNCaP xenografts; 1 h after injection): 10.3 ± 4.8
- Tumor-to-Kidneys ratio (LNCaP xenografts; 1 h after injection): 0.10 ± 0.03
- Tumor-to-Liver ratio (LNCaP xenografts; 1 h after injection): 11.3 ± 4.5
- Tumor-to-Muscles ratio (LNCaP xenografts; 1 h after injection): 19.2 ± 6.5
- Tumor-to-Salivary glands ratio (LNCaP xenografts; 1 h after injection): 4.12 ± 1.60
- Tumor-to-Spleen ratio (LNCaP xenografts; 1 h after injection): 0.89 ± 0.20
- Biodistribution, Adrenals (LNCaP xenografts; 4 h after injection): 8.03 ± 2.66 %IA/g
- Biodistribution, Blood (LNCaP xenografts; 4 h after injection): 0.17 ± 0.04 %IA/g
- Biodistribution, Femur (LNCaP xenografts; 4 h after injection): 0.62 ± 0.11 %IA/g
- Biodistribution, Heart (LNCaP xenografts; 4 h after injection): 0.53 ± 0.23 %IA/g
- Biodistribution, Intestine (LNCaP xenografts; 4 h after injection): 0.43 ± 0.22 %IA/g
- Biodistribution, Kidneys (LNCaP xenografts; 4 h after injection): 132 ± 9 %IA/g
- Biodistribution, Liver (LNCaP xenografts; 4 h after injection): 0.32 ± 0.16 %IA/g
- Biodistribution, Lung (LNCaP xenografts; 4 h after injection): 1.61 ± 0.58 %IA/g
- Biodistribution, Muscles (LNCaP xenografts; 4 h after injection): 0.27 ± 0.11 %IA/g
- Biodistribution, Pancreas (LNCaP xenografts; 4 h after injection): 0.80 ± 0.32 %IA/g
- Biodistribution, Salivary glands (LNCaP xenografts; 4 h after injection): 1.62 ± 0.43 %IA/g
- Biodistribution, Spleen (LNCaP xenografts; 4 h after injection): 8.33 ± 2.11 %IA/g
- Biodistribution, Stomach (LNCaP xenografts; 4 h after injection): 0.47 ± 0.16 %IA/g
- Biodistribution, Tumor (tumor uptake) (LNCaP xenografts; 4 h after injection): 6.28 ± 2.19 %IA/g
- Tumor-to-Adrenals ratio (LNCaP xenografts; 4 h after injection): 0.78 ± 0.11
- Tumor-to-Blood ratio (LNCaP xenografts; 4 h after injection): 42.7 ± 16.4
- Tumor-to-Intestine ratio (LNCaP xenografts; 4 h after injection): 12.4 ± 4.4
- Tumor-to-Kidneys ratio (LNCaP xenografts; 4 h after injection): 0.04 ± 0.01
- Tumor-to-Liver ratio (LNCaP xenografts; 4 h after injection): 18.4 ± 8.5
- Tumor-to-Muscles ratio (LNCaP xenografts; 4 h after injection): 20.1 ± 2.5
- Tumor-to-Salivary glands ratio (LNCaP xenografts; 4 h after injection): 3.63 ± 0.40
- Tumor-to-Spleen ratio (LNCaP xenografts; 4 h after injection): 0.71 ± 0.12

Compound: O=C([O-])CN1CCN(CC(=O)[O-])CCN(C(CCC(=O)N[C@H](Cc2ccc(O)c(I)c2)C(=O)N[C@H](Cc2ccccc2)C(=O)N[C@H](CCCCNC(=O)CCCCCCC(=O)NCCCC[C@H](NC(=O)N[C@@H](CCC(=O)O)C(=O)O)C(=O)O)C(=O)O)C(=O)[O-])CC1.[68Ga+3] (some centres unmarked) [[^68Ga]Ga-NODAGA-PSMA-I&T]
- Cellular uptake (surface-bound + internalized) (LNCaP cells): 18.1% ± 2.6%
